Results published in paper PMC10961402, “Safety, tolerability, pharmacokinetics and pharmacokinetic-pharmacodynamic modeling of cetagliptin in patients with type 2 diabetes mellitus” (Frontiers in Endocrinology, 2024).
Where two headings read alike, the source gives them in different places.

Legend:
Format in all cases: in vivo, human
[1] = Plasma pharmacokinetics after single and multiple oral doses (non-compartmental analysis); conditions: patients with T2DM; for AUC(0-t): po, 100 mg
Experimental: This was a single-center, randomized, double-blind, placebo and positive-controlled, single and multiple oral-dose study. A total of 32 Chinese adults diagnosed with T2DM were recruited for this study and allocated into two dosage groups: 50 mg and 100 mg, each consisting of 16 participants. […] The positive control was designed as open label. […] Subjects underwent medication randomization on day -1, and were assigned the corresponding investigational products. They were orally administered to the drug once every morning on fasting condition for 14 consecutive days. […] After finished the dosing, another OGTT was performed on day 15. Blood samples were collected at designated time points for the analysis of PK/PD and exploratory indicators. Subjects were discharged after completion of the safety assessments on day 19. […] PK parameters were calculated using non-compartmental analysis with Phoenix WinNonlin (version 8.1, Certara, Co., Princeton, NJ, United States). Peak plasma concentration after administration (Cmax) and time to reach Cmax (Tmax) were obtained directly from the observed data, elimination half-life (t1/2) was calculated as ln2/λz using the best fit mode, where λz was the terminal elimination rate constant. Area under the plasma concentration-time curve from zero to the last measurable concentration (AUC0-t) was estimated using the linear trapezoidal method and AUC from zero to infinity (AUC0-∞) was calculated as AUC0-t+Ct/λz, where Ct was the last measured concentration. […] Apparent total plasma clearance after non-intravenous (CL/F) and apparent volume of distribution in terminal phase after non-intravenous (Vz/F) were calculated as Dose/AUC0-∞ and CL/λz, respectively.

[2] = test system: plasma active GLP-1; test: Plasma active GLP-1 concentration change from baseline (ELISA); conditions: patients with T2DM
Experimental: Blood samples for GLP-1 activity evaluation were collected at the same time points as for PK. 2 mL blood samples were collected for GLP-1 activity detection (20 μL DPP-4i was added to blood-collecting tubes beforehand). The tubes were placed on ice until centrifugation. The blood samples were centrifuged at 2-8°C, 1500 g for 10 minutes within 1 hour after blood collection. After centrifugation, the blood samples were evenly divided into two aliquots and stored at -80 ± 10°C. Plasma active GLP-1 concentrations were determined using a validated ELISA method. Linear calibration curves were obtained in the concentration range of 0.017-276 pM ([31]).
The change of GLP-1 concentration from baseline (△GLP-1) was calculated as follows:
Δ [GLP-1] = [GLP-1] (t) - [GLP-1] (0)
The calculated parameters for GLP-1 activity were as follows: the baseline GLP-1 value before dosing (Baseline), Rmax, TRmax, AUEC0-t, AUEC0-24h, GLP-1 concentration change at 2 h after lunch (△GLP-1-6h), GLP-1 concentration change at 2 h after dinner (△GLP-1-12h), Rmin on day 14, and the average response on day 14 (Ravg).

[3] = test system: glucose, insulin, C-peptide, and glucagon; test: Oral glucose tolerance test (OGTT): glucose, insulin, C-peptide, glucagon; conditions: patients with T2DM
Experimental: To assess the impact of investigational products on glucose, insulin, C-peptide, and glucagon, OGTT tests were conducted on day -1 and day 15 following a fasting period of more than 8 hours. Subjects received a 75 g oral glucose dose and blood samples (1.5 mL for glucose, 3.5 mL for insulin and C-peptide, 2 mL for glucagon) were collected at 0, 0.167, 0.5, 1, 1.5, 2, and 3 h after ingestion of glucose. The PD parameters (AUEC0-t) for glucose, insulin, C-peptide, and glucagon were calculated by using drug effect module of non-compartmental method with Phoenix WinNonlin.

[4] = Preliminary efficacy evaluation (FPG, 2 h PPG, HbA1c, GA); conditions: patients with T2DM; 100 mg once daily; day 14
Experimental: Blood samples for determination of fasting plasma glucose (FPG) and 2 hour postprandial plasma glucose (2 h PPG) were collected on day -2, day 7 and day 14. Additionally, blood samples for determination of glycated Hemoglobin A1C (HbA1c) and glycated Albumin (GA) were collected on day -2 and day 14. The changes of the above indexes relative to pre-treatment baseline (day -2) were evaluated and compared to investigate the preliminary efficacy of investigational product.

[5] = Safety and tolerability assessments (adverse events); conditions: patients with T2DM, 14 days
Experimental: Safety and tolerability were evaluated by monitoring adverse events (AEs), laboratory tests (including blood routine, urine routine, stool routine, blood biochemical test and coagulation function), vital signs, physical examination, 12-lead electrocardiogram and other indicators. AEs were monitored and collected throughout the study. Descriptive analysis of the type and intensity of AEs were conducted according to NCICTC AE5.0.

[6] = 100 mg oral once daily, day 14, median (range)
[7] = cetagliptin group (50 or 100 mg, n=20) / sitagliptin group (100 mg, n=8)

Work on `N[C@@H](CC(=O)N1CCn2c(nnc2C(F)(F)F)C1)Cc1cc(F)c(F)cc1F` [Sitagliptin, sitagliptin, reference compound] yielded a half-life ([1]; human, in vivo, 100 mg oral once daily, day 14) of 9.12 ± 0.664 h, an AUC(0-t) ([1]; human, plasma, 100 mg oral once daily, day 14, read-out: AUC0-24h) of 3760 ± 748 ng·h/mL and an AUC(0-t) ([1]; human, plasma, 100 mg oral once daily, day 14, read-out: AUC0-t) of 4290 ± 783 ng·h/mL. The AUC(0-t) ([1]; human, plasma, 100 mg oral, day 1, read-out: AUC0-24h) was 3340 ± 522 ng·h/mL, the AUC(0-inf) ([1]; human, plasma, 100 mg oral once daily, day 14) was 4380 ± 789 ng·h/mL and the Cmax ([1]; human, plasma, 100 mg oral once daily, day 14, read-out: Cmax,ss) was 419 ± 137 ng/mL. It also gave a Vd/F ([1]; human, plasma, 100 mg oral once daily, day 14, read-out: Vz,ss/F) of 362 ± 75.9 L, a Tmax ([1]; human, plasma, 100 mg oral, day 1, median (range), read-out: Tmax) of 1.5 h and a CLss/F ([1]; 100 mg oral once daily, day 14) of 27.5 ± 5.12 L/h. For the same compound, the Cavg ([1]; 100 mg oral once daily, day 14) was 157 ± 31.2 ng/mL, the “Tmax,ss” value [1, 6] was 3.00 (0.500-5.00) h and the Cmax ([1]; 100 mg oral, day 1) was 394 ± 105 ng/mL. The “time of daily dosing after which steady-state conditions were reached” value ([1]; once daily dosing, trough concentrations days 7, 10, 14) was 1 week, the “GLP-1 Baseline (value before dosing)” value ([2]; 100 mg group, day 1 before dosing) was 0.442 ± 0.406 pM and the “R0h,ss (baseline plasma active GLP-1 on day 14)” value ([2]; 100 mg oral once daily, day 14) was 1.700 ± 0.851 pM. The “△GLP-1-6h (change at 2 h after lunch)” value ([2]; 100 mg oral once daily, day 14) was 6.553 ± 3.739 pM, the “△GLP-1-12h (change at 2 h after dinner)” value ([2]; 100 mg oral once daily, day 14) was 5.775 ± 4.299 pM and the “△GLP-1 Ravg,ss” value ([2]; 100 mg oral once daily, day 14) was 3.821 ± 2.361 pM. For the same compound, the “△GLP-1 Rmax,ss” value ([2]; 100 mg oral once daily, day 14) was 8.080 ± 3.592 pM, the “R0h,ss (baseline plasma active GLP-1 on day 14)” value ([2]; 100 mg oral once daily, day 14, listed as sitagliptin) was 1.700 pM and the “△GLP-1 TRmax,ss” value [2, 6] was 5.00 (5.00-6.00) h. The “△GLP-1-6h (change at 2 h after lunch)” value ([2]; 100 mg oral, day 1) was 3.491 ± 1.703 pM, the “△GLP-1-12h (change at 2 h after dinner)” value ([2]; 100 mg oral, day 1) was 3.764 ± 2.490 pM and the “△GLP-1 AUEC0-24h” value ([2]; 100 mg oral, day 1) was 61.2 ± 28.6 pM·h. For the same compound, the “△GLP-1 Rmax” value ([2]; 100 mg oral, day 1) was 5.901 ± 2.375 pM, the “△GLP-1 TRmax” value ([2]; 100 mg oral, day 1, median (range)) was 7.00 (5.00-12.00) h and the “glucose AUEC0-t (OGTT)” value ([3]; 100 mg group, day -1 (baseline before dosing)) was 44.07 ± 5.74 mmol·h/L. The “glucose AUEC0-t (OGTT)” value ([3]; day 15 after 100 mg once daily for 14 days) was 43.40 ± 6.51 mmol·h/L, the “decrease of HbA1c compared with baseline” value [4] was 0.44% and the “intensity of drug-related adverse events” value ([5]; cetagliptin 50 or 100 mg, sitagliptin 100 mg) was “mild”. For the same compound, the “number of drug-related AEs” value [5, 7] was 7 AEs and the “number of subjects reporting drug-related AEs” value [5, 7] was 3 subjects.
